# Source: patent publication US20140088192A1, “SUBCUTANEOUSLY INFUSIBLE LEVODOPA PRODRUG COMPOSITIONS AND METHODS OF INFUSION” (SynAgile Corporation, priority 2010, published 2014)
# Assays:
# [1] = pH change of LDEE.HCl solutions on holding; assay type: physicochemical; conditions: for pH of about 0.48M LDEE•HCl Solution / pH of about 0.95M LDEE•HCl Solution: 40° C.; for pH: about 2.7 M
# Procedure: An about 2.6 M LDEE.HCl pH 2.1 aqueous solution was prepared by dissolving 1.506 g LDEE in 1.3 mL of aqueous 5M HCl and adjusting the pH by adding 0.24 μL of 1 M HCl. […] After 24 hours, the pH was 2.0.
# To determine whether hydrolysis of subcutaneously infusible solutions of 0.95 M and 0.48 M LDEE.HCl concentrations excessively lowers their pH or drives their LD concentration beyond the saturation point where LD could precipitate, their starting pH of less <3 adjusted by adding an about 1.5 M trisodium citrate solution, were kept at 40° C. for 24 hrs.
# [2] = tested on: volunteer; assay: Intramuscular / subcutaneous infusion of LDEE.HCl in human volunteers, local tolerability; assay type: in vivo; conditions: s.c. abdomen, 0.24 mL of 2.3 M pH 4.5 over about 90 min in 8 boluses
# [3] = Achievable concentration and density of concentrated LDEE salt solutions
# Procedure: The pH was adjusted to 4.60 by adding 160 mg of sodium acetate.
# [4] = Precipitation of LD from / clarity of LDEE solutions on holding; conditions: 2.3 M
# Procedure: 150 mg of LDEE was dissolved in 3 mL of physiological saline (0.90% weight/volume of NaCl/water) at about 23° C., then at about 37° C. an additional amount of 22 mg of LDEE was added for a total LDEE concentration of about 57.3 mg/mL or about 0.25M.
# At the ambient temperature of about 23° C., 226 mg of LDEE was dissolved in 1 mL of 1 M HCl. To the formed aqueous LDEE.HCl solution an additional amount of about 184 mg LDEE was added, followed by about 0.1 mL deionized water.
# At the ambient temperature of about 23° C., about 113 mg of LDEE was dissolved in 1 mL of 1 M HCl. To the formed aqueous LDEE.HCl solution an additional amount of about 87 mg LDEE was added, followed by about 0.1 mL distilled water.
# At the ambient temperature of about 23° C., about 226 mg of LDEE was dissolved in 1 mL of 1 M acetic acid. To the formed aqueous LDEE acetate salt solution an additional amount of about 168 mg LDEE was added. […] The pH of the resulting suspension was about 7.01 at about 26.4° C.
# 1.7 g of LDEE (7.5 millimoles) was dissolved in 1.405 mL of aqueous 5M HCl, then enough trisodium citrate was added to increase the pH to 5.5.
# After flushing with nitrogen, the solution was kept for 7 days at 23±2° C. in a vial sealed with a grey elastomeric, substantially oxygen impermeable septum.
smiles,measurement,setting,value
"CCOC(=O)[C@@H](N)Cc1ccc(O)c(O)c1.Cl [LDEE.HCl, LDEE Hydrochloride]",pH of about 0.48M LDEE•HCl Solution,"[1]; 0 h, starting pH 4.19",4.19
same,pH of about 0.95M LDEE•HCl Solution,"[1]; 0 h, starting pH 4.2",4.2
same,pH of about 0.95M LDEE•HCl Solution,"[1]; 0 h, starting pH 4.4",4.4
same,pH of about 0.48M LDEE•HCl Solution,"[1]; 0 h, starting pH 4.45",4.45
same,pH of about 0.48M LDEE•HCl Solution,"[1]; 0 h, starting pH 4.59",4.59
same,pH of about 0.95M LDEE•HCl Solution,"[1]; 0 h, starting pH 4.6",4.6
same,pH of about 0.48M LDEE•HCl Solution,"[1]; 0 h, starting pH 4.78",4.78
same,pH of about 0.95M LDEE•HCl Solution,"[1]; 0 h, starting pH 4.82",4.82
same,pH of about 0.48M LDEE•HCl Solution,"[1]; 0 h, starting pH 5.01",5.01
same,pH of about 0.95M LDEE•HCl Solution,"[1]; 0 h, starting pH 5.01",5.01
same,pH of about 0.95M LDEE•HCl Solution,"[1]; 0 h, starting pH 5.3",5.3
same,pH of about 0.48M LDEE•HCl Solution,"[1]; 0 h, starting pH 5.31",5.31
same,pH of about 0.95M LDEE•HCl Solution,"[1]; 0 h, starting pH 5.6",5.6
same,pH of about 0.48M LDEE•HCl Solution,"[1]; 0 h, starting pH 5.61",5.61
same,pH of about 0.48M LDEE•HCl Solution,"[1]; 2 h, starting pH 4.19",4.43
same,pH of about 0.95M LDEE•HCl Solution,"[1]; 2 h, starting pH 4.2",4.19
same,pH of about 0.95M LDEE•HCl Solution,"[1]; 2 h, starting pH 4.4",4.38
same,pH of about 0.48M LDEE•HCl Solution,"[1]; 2 h, starting pH 4.45",4.58
same,pH of about 0.48M LDEE•HCl Solution,"[1]; 2 h, starting pH 4.59",4.68
same,pH of about 0.95M LDEE•HCl Solution,"[1]; 2 h, starting pH 4.6",4.61
same,pH of about 0.48M LDEE•HCl Solution,"[1]; 2 h, starting pH 4.78",4.85
same,pH of about 0.95M LDEE•HCl Solution,"[1]; 2 h, starting pH 4.82",4.74
same,pH of about 0.48M LDEE•HCl Solution,"[1]; 2 h, starting pH 5.01",5.01
same,pH of about 0.95M LDEE•HCl Solution,"[1]; 2 h, starting pH 5.01",5.01
same,pH of about 0.95M LDEE•HCl Solution,"[1]; 2 h, starting pH 5.3",5.34
same,pH of about 0.48M LDEE•HCl Solution,"[1]; 2 h, starting pH 5.31",5.42
same,pH of about 0.95M LDEE•HCl Solution,"[1]; 2 h, starting pH 5.6",5.68
same,pH of about 0.48M LDEE•HCl Solution,"[1]; 2 h, starting pH 5.61",5.65
same,pH of about 0.48M LDEE•HCl Solution,"[1]; 6 h, starting pH 4.19",4.34
same,pH of about 0.95M LDEE•HCl Solution,"[1]; 6 h, starting pH 4.2",4.02
same,pH of about 0.95M LDEE•HCl Solution,"[1]; 6 h, starting pH 4.4",4.28
same,pH of about 0.48M LDEE•HCl Solution,"[1]; 6 h, starting pH 4.45",4.54
same,pH of about 0.48M LDEE•HCl Solution,"[1]; 6 h, starting pH 4.59",4.6
same,pH of about 0.95M LDEE•HCl Solution,"[1]; 6 h, starting pH 4.6",4.53
same,pH of about 0.48M LDEE•HCl Solution,"[1]; 6 h, starting pH 4.78",4.71
same,pH of about 0.95M LDEE•HCl Solution,"[1]; 6 h, starting pH 4.82",4.69
same,pH of about 0.48M LDEE•HCl Solution,"[1]; 6 h, starting pH 5.01",4.9
same,pH of about 0.95M LDEE•HCl Solution,"[1]; 6 h, starting pH 5.01",4.84
same,pH of about 0.95M LDEE•HCl Solution,"[1]; 6 h, starting pH 5.3",5.21
same,pH of about 0.48M LDEE•HCl Solution,"[1]; 6 h, starting pH 5.31",5.23
same,pH of about 0.95M LDEE•HCl Solution,"[1]; 6 h, starting pH 5.6",5.53
same,pH of about 0.48M LDEE•HCl Solution,"[1]; 6 h, starting pH 5.61",5.53
same,pH of about 0.95M LDEE•HCl Solution,"[1]; 24 h, starting pH 4.2",3.86
same,pH of about 0.95M LDEE•HCl Solution,"[1]; 24 h, starting pH 4.4",4.03
same,pH of about 0.48M LDEE•HCl Solution,"[1]; 24 h, starting pH 4.45",4.19
same,pH of about 0.48M LDEE•HCl Solution,"[1]; 24 h, starting pH 4.59",4.32
same,pH of about 0.95M LDEE•HCl Solution,"[1]; 24 h, starting pH 4.6",4.22
same,pH of about 0.48M LDEE•HCl Solution,"[1]; 24 h, starting pH 4.78",4.52
same,pH of about 0.95M LDEE•HCl Solution,"[1]; 24 h, starting pH 4.82",4.36
same,pH of about 0.48M LDEE•HCl Solution,"[1]; 24 h, starting pH 5.01",4.6
same,pH of about 0.95M LDEE•HCl Solution,"[1]; 24 h, starting pH 5.01",4.58
same,pH of about 0.95M LDEE•HCl Solution,"[1]; 24 h, starting pH 5.3",4.8
same,pH of about 0.48M LDEE•HCl Solution,"[1]; 24 h, starting pH 5.31",4.91
same,pH of about 0.95M LDEE•HCl Solution,"[1]; 24 h, starting pH 5.6",5.19
same,pH of about 0.48M LDEE•HCl Solution,"[1]; 24 h, starting pH 5.61",5.23
same,pH after 24 hours,"[1]; about 2.6 M, starting pH 2.1, 23±2° C.",2.0
same,pH,"[1]; start pH about 4.49, 24 h at 40° C.",4.2
same,pH,"[1]; start pH about 4.49, 48 h at 40° C.",4.0
same,nodule formation,[2],nor did it cause the formation of a nodule
same,concentration of aqueous solutions allowed by solubility,[3]; aqueous solution,greater than 2.5 M
same,concentration of clear solution (high solubility),"[3]; pH 4.60 (sodium acetate), ambient about 23±2° C.",about 2.5 M
same,appearance of infused solution after storage,"[4]; citrate pH 4.5, 2.5 days at room temperature and 7 weeks in a refrigerator",colorless and clear
same,appearance of infused solution after storage,"[4]; citrate pH 4.5, about 3 days at room temperature and about 3 months in a refrigerator",colorless and clear
